Assay results reported in patent publication US8486447B2, “Pharmaceutical formulation” (Novartis AG, priority 2003, dated 2013).

Assay: HPLC analysis of thermal degradation of drug substance and melt-processed solid dispersions
Type: physicochemical
Settings: for HPLC analysis (thermal degradation): Table 1

**Q.** What does the source list for `CN(Cc1ccccc1)C(=O)[C@H](Cc1ccc2ccccc2c1)N(C)C(=O)[C@@H]1CCCN1c1nc(=O)c2ccccc2[nH]1` [TKA731, (S)-1-(4-Oxo-1,4-dihydro-quinazolin-2-yl)-pyrrolidine-2-carboxylic acid[(S)-1-(benzyl-methyl-carbamoyl)-2-naphthalen-2-yl-ethyl]-methyl-amide]?
**A.** HPLC analysis (thermal degradation) (drug load 100%, PVPK-30 0%, amorphous TKA731): No degradation; HPLC analysis (thermal degradation) (solid dispersion, drug load 20%, PVPK-30 80%): No degradation; HPLC analysis (thermal degradation) (solid dispersion, drug load 30%, PVPK-30 70%): No degradation; HPLC analysis (thermal degradation) (solid dispersion, drug load 40%, PVPK-30 60%): No degradation; HPLC analysis (degradation) (Table 2, starting from amorphous drug, Tg 94.5 °C): No; HPLC analysis (degradation) (Table 2, starting from crystalline drug, melting point 175 °C): 20%; HPLC analysis (degradation) (Table 3, amorphous drug load 20%, PVPK-30 70%, sorbitol 10%, processing temperature 170 °C): No; HPLC analysis (degradation) (Table 3, amorphous drug load 30%, PVPK-30 65%, sorbitol 5%, processing temperature 170 °C): No; HPLC analysis (degradation) (Table 3, amorphous drug load 40%, PVPK-30 60%, sorbitol 0%, processing temperature 170 °C): No
